Experimental findings from patent publication US20260250290A1 (BRISTOL-MYERS SQUIBB COMPANY, priority 2023, published 2026) are described below.

Each structure is given as a SMILES string.

The assay has as its target T1, SGK1 (Homo sapiens, UniProt O00141).
T1 sequence (O00141 1-431): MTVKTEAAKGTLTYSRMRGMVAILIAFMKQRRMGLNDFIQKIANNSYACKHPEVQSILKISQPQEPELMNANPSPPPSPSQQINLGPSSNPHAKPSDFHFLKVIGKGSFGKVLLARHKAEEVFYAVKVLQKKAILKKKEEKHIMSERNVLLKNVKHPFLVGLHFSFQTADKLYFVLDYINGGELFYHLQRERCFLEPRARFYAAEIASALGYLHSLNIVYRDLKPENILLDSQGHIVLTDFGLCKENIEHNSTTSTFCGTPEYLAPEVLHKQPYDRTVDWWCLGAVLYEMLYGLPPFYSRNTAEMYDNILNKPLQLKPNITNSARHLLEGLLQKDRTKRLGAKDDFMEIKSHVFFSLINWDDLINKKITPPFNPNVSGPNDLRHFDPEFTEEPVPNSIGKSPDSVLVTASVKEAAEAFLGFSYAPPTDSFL
Nature of the assay: SGK1 inhibition Assay B (Echo mass spectrometry of phosphorylated peptide product). It is filed as biochemical. The settings on record: 60 min at room temperature.

With `[2H]C([2H])([2H])c1nc(O[C@H]2CC[C@@H](N(C)C)CC2)c(C(=O)N[C@@H]2CCCN(c3cc(C4=C(C)C(=O)OC4)n4ncnc(N)c34)C2)s1` [Example 1016, N—((R)-1-(4-amino-7-(4-methyl-5-oxo-2,5-dihydrofuran-3-yl)pyrrolo[2,1-f][1,2,4]triazin-5-yl)piperidin-3-yl)-4-(((1S,4S)-4-(dimethylamino)cyclohexyl)oxy)-2-(methyl-d3)thiazole-5-carboxamide], it took 1 nM to reach half-maximal inhibition (IC50).
The result for `CC1=C(c2cc(N3CCC[C@@H](NC(=O)c4sc(C)nc4OC4CCC(N(C)C)CC4)C3)c3c(N)ncnn23)COC1=O` (stereo partly drawn) [Example 1017, N—((R)-1-(4-amino-7-(4-methyl-5-oxo-2,5-dihydrofuran-3-yl)pyrrolo[2,1-f][1,2,4]triazin-5-yl)piperidin-3-yl)-4-(((1S,4S)-4-(dimethylamino)cyclohexyl)oxy)-2-(methyl-d3)thiazole-5-carboxamide] reads 1.6 nM; that for `CCC1=C(c2cc(N3CCC[C@@H](NC(=O)c4sc(C)nc4O[C@H]4CC[C@@H](N(C)C)CC4)C3)c3c(N)ncnn23)COC1=O` [Example 1018, N—((R)-1-(4-amino-7-(4-ethyl-5-oxo-2,5-dihydrofuran-3-yl)pyrrolo[2,1-f][1,2,4]triazin-5-yl)piperidin-3-yl)-4-(((1S,4S)-4-(dimethylamino)cyclohexyl)oxy)-2-methylthiazole-5-carboxamide], 0.8 nM; that for `CCC1=C(c2cc(N3CCC[C@@H](NC(=O)c4sc(C)nc4OC4CCC(NC5CC5)CC4)C3)c3c(N)ncnn23)COC1=O` (stereo partly drawn) [Example 1022, (R)-N-(1-(4-amino-7-(4-ethyl-5-oxo-2,5-dihydrofuran-3-yl)pyrrolo[2,1-f][1,2,4]triazin-5-yl)piperidin-3-y1)-4-((4-(cyclopropylamino)cyclohexyl)oxy)-2-methylthiazole-5-carboxamide], 1.3 nM.
As to `Cc1nc(OC2CCC(NC(C)(C)C)CC2)c(C(=O)N[C@@H]2CCCN(c3cc(-c4ccc(S(C)(=O)=O)cn4)n4ncnc(N)c34)C2)s1` (stereo partly drawn) [Example 1026, (R)—N-(1-(4-amino-7-(5-(methylsulfonyl)pyridin-2-yl)pyrrolo[2,1-f][1,2,4]triazin-5-yl)piperidin-3-yl)-4-((4-(tert-butylamino)cyclohexyl)oxy)-2-methylthiazole-5-carboxamide], the IC50 (as a rule, the point on the concentration scale where inhibition reaches its midpoint) was 2.2 nM.
`COc1nccc(-c2cc(N3CCC[C@@H](NC(=O)c4sc(C)nc4O[C@H]4CC[C@@H](N(C)C)CC4)C3)c3c(N)ncnn23)n1` [Example 1028, N—((R)-1-(4-amino-7-(2-methoxypyrimidin-4-yl)pyrrolo[2,1-f][1,2,4]triazin-5-yl)piperidin-3-yl)-4-(((1S,4S)-4-(dimethylamino)cyclohexyl)oxy)-2-methylthiazole-5-carboxamide]: it took 1.7 nM to reach half-maximal inhibition (IC50).
On to `COc1nccc(-c2cc(N3CCC[C@@H](NC(=O)c4sc(C)nc4O[C@H]4CC[C@@H](N5CCCC5)CC4)C3)c3c(N)ncnn23)n1` [Example 1029, N—((R)-1-(4-amino-7-(2-methoxypyrimidin-4-yl)pyrrolo[2,1-f][1,2,4]triazin-5-yl)piperidin-3-yl)-2-methyl-4-(((1s,4S)-4-(pyrrolidin-1-yl)cyclohexyl)oxy)thiazole-S-carboxamidemorpholinothiophene-2-carboxamide], for which the midpoint of inhibition, the IC50, lay at 0.1 nM.
On to `CCC(C)(C)N[C@H]1CC[C@@H](Oc2nc(C)sc2C(=O)N[C@@H]2CCCN(c3cc(-c4ccnc(OC)n4)n4ncnc(N)c34)C2)CC1` [Example 1030, (R)—N-(1-(4-amino-7-(2-methoxypyrimidin-4-yl)pyrrolo[2,1-f][1,2,4]triazin-5-yl)piperidin-3-yl)-2-methyl-4-((4-(tert-pentylamino)cyclohexyl)oxy)thiazole-5-carboxamide], for which the IC50 turned out to be 0.9 nM.
`[2H]C([2H])([2H])N(C1CCC(Oc2nc(C)sc2C(=O)N[C@@H]2CCCN(c3cc(-c4ccnc(OC)n4)n4ncnc(N)c34)C2)CC1)C([2H])([2H])[2H]` (stereo partly drawn) [Example 1031, (R)—N-(1-(4-amino-7-(2-methoxypyrimidin-4-yl)pyrrolo[2,1-f][1,2,4]triazin-5-yl)piperidin-3-yl)-4-((4-(bis(methyl-d3)amino)cyclohexyl)oxy)-2-methylthiazole-5-carboxamide] registered an IC50 of 1.1 nM.
`[2H]C([2H])([2H])N(C1CCC(Oc2nc(C)sc2C(=O)N[C@@H]2CCCN(c3cc(-c4ccnc(OC)n4)n4ncnc(N)c34)C2)CC1)C([2H])([2H])[2H]` (stereo partly drawn) [Example 1032, (R)—N-(1-(4-amino-7-(2-methoxypyrimidin-4-yl)pyrrolo[2,1-f][1,2,4]triazin-5-yl)piperidin-3-yl)-4-((4-(bis(methyl-d3)amino)cyclohexyl)oxy)-2-methylthiazole-5-carboxamide] had an IC50 of 1.2 nM.
`[2H]C([2H])([2H])Oc1nccc(-c2cc(N3CCC[C@@H](NC(=O)c4sc(C)nc4O[C@H]4CC[C@@H](N(C)C)CC4)C3)c3c(N)ncnn23)n1` [Example 1033, N—((R)-1-(4-amino-7-(2-(methoxy-d3)pyrimidin-4-yl)pyrrolo[2,1-f][1,2,4]triazin-5-yl)piperidin-3-yl)-4-(((1S,4S)-4-(dimethylamino)cyclohexyl)oxy)-2-methylthiazole-5-carboxamide]: 1 nM corresponded to half-maximal inhibition (IC50).
In turn, `Cc1nccc(-c2cc(N3CCC[C@@H](NC(=O)c4sc(C)nc4O[C@H]4CC[C@@H](N(C)C)CC4)C3)c3c(N)ncnn23)n1` [Example 1035, N—((R)-1-(4-amino-7-(2-methylpyrimidin-4-yl)pyrrolo[2,1-f][1,2,4]triazin-5-yl)piperidin-3-yl)-4-(((1S,4S)-4-(dimethylamino)cyclohexyl)oxy)-2-methylthiazole-5-carboxamide] gave an IC50 of 0.8 nM.
The result for `Cc1nccc(-c2cc(N3CCC[C@@H](NC(=O)c4sc(C)nc4O[C@H]4CC[C@@H](NC(C)C)CC4)C3)c3c(N)ncnn23)n1` [Example 1036, N—((R)-1-(4-amino-7-(2-methylpyrimidin-4-yl)pyrrolo[2,1-f][1,2,4]triazin-5-yl)piperidin-3-yl)-4-(((1S,4S)-4 (isopropylamino)cyclohexyl)oxy)-2-methylthiazole-5-carboxamide] reads 0.1 nM.
Consider `Cc1nccc(-c2cc(N3CCC[C@@H](NC(=O)c4sc(C)nc4OC4CCC(N5CCC5)CC4)C3)c3c(N)ncnn23)n1` (stereo partly drawn) [Example 1037, N—((R)-1-(4-amino-7-(2-methylpyrimidin-4-yl)pyrrolo[2,1-f][1,2,4]triazin-5-yl)piperidin-3-yl)-4-(((1S,4S)-4-(azetidin-1-yl)cyclohexyl)oxy)-2-methylthiazole-5-carboxamide], for which the IC50 came out at 1.2 nM.
The result for `COc1cc(-c2cc(N3CCC[C@@H](NC(=O)c4sc(C)nc4OC4CCC(N5CCC5)CC4)C3)c3c(N)ncnn23)ccn1` (stereo partly shown) [Example 1038] reads 0.9 nM.
With `Cc1nc(OC2CCC(N3CC(O)C3)CC2)c(C(=O)N[C@@H]2CCCN(c3cc(-c4ccc(C(N)=O)c(F)c4)n4ncnc(N)c34)C2)s1` (stereo partly drawn) [Example 1039, (R)—N-(1-(4-amino-7-(4-carbamoyl-3-fluorophenyl)pyrrolo[2,1-f][1,2,4]triazin-5-yl)piperidin-3-yl)-4-((4-(3-hydroxyazetidin-1-yl)cyclohexyl)oxy)-2-methylthiazole-5-carboxamide], 0.9 nM corresponded to half-maximal inhibition (IC50).
Regarding `COC[C@@H](C)NC1CCC(Oc2nc(C)sc2C(=O)N[C@@H]2CCCN(c3cc(-c4ccc(C(N)=O)c(F)n4)n4ncnc(N)c34)C2)CC1` (stereo partly shown) [Example 1040], it took 1.7 nM to reach half-maximal inhibition (IC50).
In the case of `Cc1nc(OC2CCC(N3CCC3)CC2)c(C(=O)N[C@@H]2CCCN(c3cc(-c4ccc(C(N)=O)c(F)n4)n4ncnc(N)c34)C2)s1` (stereo partly drawn) [Example 1041, (R)—N-(1-(4-amino-7-(5-carbamoyl-6-fluoropyridin-2-yl)pyrrolo[2,1-f][1,2,4]triazin-5-yl)piperidin-3-yl)-4-((4-(azetidin-1-yl)cyclohexyl)oxy)-2-methylthiazole-5-carboxamide], the IC50 stood at 1.7 nM.
Consider `COc1nc(-c2cc(N3CCC[C@@H](NC(=O)c4sc(C)nc4OC4CCC(N5CCC[C@@H]5C)CC4)C3)c3c(N)ncnn23)ccc1C(N)=O` (stereo partly drawn) [Example 1043, N—((R)-1-(4-amino-7-(5-carbamoyl-6-methoxypyridin-2-yl)pyrrolo[2,1-f] [1,2,4]triazin-5-yl)piperidin-3-yl)-2-methyl-4-((4-((S)-2-methylpyrrolidin-1-yl)cyclohexyl)oxy) thiazole-5-carboxamide], for which the midpoint of inhibition, the IC50, lay at 2.1 nM.
Compound `COc1nc(-c2cc(N3CCC[C@@H](NC(=O)c4sc(C)nc4OC4CCC(N5CCC[C@H]5C)CC4)C3)c3c(N)ncnn23)ccc1C(N)=O` (stereo partly drawn) [Example 1044, N—((R)-1-(4-amino-7-(5-carbamoyl-6-methoxypyridin-2-yl)pyrrolo[2,1-f][1,2,4]triazin-5-yl)piperidin-3-yl)-2-methyl-4-((4-((R)-2-methylpyrrolidin-1-yl)cyclohexyl)oxy)thiazole-5-carboxamide] returned an IC50 of 2.8 nM.
As to `COc1nc(-c2cc(N3CCC[C@@H](NC(=O)c4sc(C)nc4OC4CCC(N5CCC5)CC4)C3)c3c(N)ncnn23)ccc1C(N)=O` (stereo partly drawn) [Example 1045, (R)—N-(1-(4-amino-7-(5-carbamoyl-6-methoxypyridin-2-yl)pyrrolo[2,1-f][1,2,4]triazin-5-yl)piperidin-3-yl)-4-((4-(azetidin-1-yl)cyclohexyl)oxy)-2-methylthiazole-5-carboxamide], the IC50 was determined as 0.5 nM.
`Cc1cc(-c2cc(N3CCC[C@@H](NC(=O)c4sc(C)nc4O[C@H]4CC[C@@H](N(C)C)CC4)C3)c3c(N)ncnn23)cnn1` [Example 1046] came in with an IC50 of 16 nM.
